We go through 18 molecules from patent US8461328B2, “Tricyclic heterocyclic compounds, compositions and methods of use thereof” (Genentech, Inc., priority 2010, dated 2013).

Holding throughout (format): biochemical
In test [1] the target is T1, JAK1 (Homo sapiens, UniProt P23458).
T1 construct: made in house; host or cells: SF9 insect cells (baculovirus)
Nature of the test: JAK1 inhibition (Table 4). The following applies: read-out: JAK1 Ki.

In test [2] the target is T2, JAK2 (Homo sapiens, UniProt O60674).
T2 construct: made in house; host or cells: SF9 insect cells (baculovirus)
Nature of the test: JAK2 inhibition (Table 4). The note with it: read-out: JAK2 Ki.

Test [3] has as its target T3, JAK3 (Homo sapiens, UniProt P52333).
T3 construct: made in house; host or cells: SF9 insect cells (baculovirus)
Nature of the test: JAK3 inhibition (Table 4). The following applies: read-out: JAK3 Ki.

In test [4] the target is T4, TYK2 (Homo sapiens, UniProt P29597).
T4 construct: made in house; host or cells: SF9 insect cells (baculovirus)
T4 sequence (P29597 873-1187): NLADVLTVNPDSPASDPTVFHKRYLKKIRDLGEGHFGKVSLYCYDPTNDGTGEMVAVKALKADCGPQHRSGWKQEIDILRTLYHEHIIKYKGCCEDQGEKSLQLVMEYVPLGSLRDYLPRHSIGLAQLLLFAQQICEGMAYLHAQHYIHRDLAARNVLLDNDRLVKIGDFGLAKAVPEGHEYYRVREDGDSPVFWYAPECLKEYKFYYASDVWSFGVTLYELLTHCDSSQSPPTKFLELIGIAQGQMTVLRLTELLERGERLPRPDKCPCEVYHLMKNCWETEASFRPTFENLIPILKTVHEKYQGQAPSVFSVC
Briefly: TYK2 inhibition (Table 4).

T1 sequence (P23458 852-1154): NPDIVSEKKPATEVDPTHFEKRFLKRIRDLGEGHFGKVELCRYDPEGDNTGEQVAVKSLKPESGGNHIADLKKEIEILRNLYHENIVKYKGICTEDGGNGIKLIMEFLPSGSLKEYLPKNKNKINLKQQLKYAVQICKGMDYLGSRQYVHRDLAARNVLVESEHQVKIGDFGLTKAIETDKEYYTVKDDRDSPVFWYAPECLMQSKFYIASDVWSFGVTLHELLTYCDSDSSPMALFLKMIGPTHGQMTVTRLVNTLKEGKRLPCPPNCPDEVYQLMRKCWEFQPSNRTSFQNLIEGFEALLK
T3 sequence (P52333 783-1124): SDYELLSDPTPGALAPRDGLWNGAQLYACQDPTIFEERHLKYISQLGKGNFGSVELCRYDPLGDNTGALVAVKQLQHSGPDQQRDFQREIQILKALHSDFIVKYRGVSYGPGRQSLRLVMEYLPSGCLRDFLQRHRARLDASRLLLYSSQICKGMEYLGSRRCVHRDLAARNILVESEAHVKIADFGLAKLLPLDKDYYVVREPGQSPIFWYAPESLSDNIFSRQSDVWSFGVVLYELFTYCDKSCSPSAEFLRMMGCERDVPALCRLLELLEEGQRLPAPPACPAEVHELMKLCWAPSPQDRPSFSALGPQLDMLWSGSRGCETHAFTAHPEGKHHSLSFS
T2 sequence (O60674 812-1132): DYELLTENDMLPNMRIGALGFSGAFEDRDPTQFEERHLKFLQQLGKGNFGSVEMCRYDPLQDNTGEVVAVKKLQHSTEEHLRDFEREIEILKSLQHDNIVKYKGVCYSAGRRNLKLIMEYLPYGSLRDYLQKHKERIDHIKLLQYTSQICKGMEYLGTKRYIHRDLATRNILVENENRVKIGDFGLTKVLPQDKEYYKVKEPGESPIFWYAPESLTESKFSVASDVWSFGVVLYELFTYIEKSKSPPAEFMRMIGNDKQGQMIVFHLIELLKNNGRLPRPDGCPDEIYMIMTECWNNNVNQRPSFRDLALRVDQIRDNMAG

In the case of `OCc1nc2cnc3[nH]ccc3c2n1C1CCN(CC(F)F)CC1` [Example 897, {1-[1-(2,2-Difluoro-ethyl)-piperidin-4-yl]-1,6-dihydro-1,3,5,6-tetraaza-as-indacen-2-yl}-methanol], the Ki in test [1] was 1.9 nM; in test [2] it was 9.44 nM; in test [3], 13.2 nM; in test [4], 4.42 nM.

Take `C[C@@H](O)c1nc2cnc3[nH]ccc3c2n1C1CCN(Cc2cnco2)CC1` [Example 898, (R)-1-[1-(1-Oxazol-5-ylmethyl-piperidin-4-yl)-1,6-dihydro-1,3,5,6-tetraaza-as-indacen-2-yl]-ethanol]: the Ki in test [1] was 2.09 nM; in test [2] it was 54.4 nM; in test [3] it was 12.9 nM; in test [4], 96.7 nM.

`Cc1cc(CN2CCC(n3c([C@@H](C)O)nc4cnc5[nH]ccc5c43)CC2)no1` [Example 899, (R)-1-{1-[1-(5-Methyl-isoxazol-3-ylmethyl)-piperidin-4-yl]-1,6-dihydro-1,3,5,6-tetraaza-as-indacen-2-yl}-ethanol]: the Ki came out at 3.32 nM in test [1], 32.1 nM in test [2], 6.73 nM in test [3] and 140 nM in test [4].

On to `CCn1ncc(CN2CCC(n3c([C@@H](C)O)nc4cnc5[nH]ccc5c43)CC2)c1C` [Example 900, (R)-1-{1-[1-(1-Ethyl-5-methyl-1H-pyrazol-4-ylmethyl)-piperidin-4-yl]-1,6-dihydro-1,3,5,6-tetraaza-as-indacen-2-yl}-ethanol], for which the Ki turned out to be 18 nM in test [1], 494 nM in test [2], 130 nM in test [3] and 2010 nM in test [4].

Regarding `Cc1nc2ncccn2c1CN1CCC(n2c([C@@H](C)O)nc3cnc4[nH]ccc4c32)CC1` [Example 901, (R)-1-{1-[1-(2-Methyl-imidazo[1,2-a]pyrimidin-3-ylmethyl)-piperidin-4-yl]-1,6-dihydro-1,3,5,6-tetraaza-as-indacen-2-yl}-ethanol], the Ki in test [1] stood at 25 nM; in test [2], 139 nM; in test [3], 72.5 nM; in test [4], 223 nM.

Consider `Cc1nc(CN2CCC(n3c([C@@H](C)O)nc4cnc5[nH]ccc5c43)CC2)c[nH]1` [Example 902, (R)-1-{1-[1-(2-Methyl-1H-imidazol-4-ylmethyl)-piperidin-4-yl]-1,6-dihydro-1,3,5,6-tetraaza-as-indacen-2-yl}-ethanol], for which the Ki in test [1] amounted to 25.5 nM; in test [2], 1230 nM; in test [3], 478 nM; in test [4] it was 2670 nM.

`Cc1nc(CN2CCC(n3c([C@@H](C)O)nc4cnc5[nH]ccc5c43)CC2)c(C)o1` [Example 903, (R)-1-{1-[1-(2,5-Dimethyl-oxazol-4-ylmethyl)-piperidin-4-yl]-1,6-dihydro-1,3,5,6-tetraaza-as-indacen-2-yl}-ethanol]: the Ki in test [1] is 33.9 nM; in test [2], 323 nM; in test [3], 88.9 nM; in test [4] it was 542 nM.

On to `CC(O)c1nc2cnc3[nH]ccc3c2n1C1CC2CCC1O2` (stereo not drawn) [Example 906, 1-[1-(7-Oxa-bicyclo[2.2.1]hept-2-yl)-1,6-dihydro-1,3,5,6-tetraaza-as-indacen-2-yl]-ethanol], for which the Ki in test [1] is 51.8 nM; in test [2], 271 nM; in test [3], 273 nM; in test [4], 119 nM.

On to `CCN1CCC(n2c(CCNC(=O)OC)nc3cnc4[nH]ccc4c32)C(F)(F)C1` (stereo not drawn) [Example 908, {2-[1-(1-Ethyl-3,3-difluoro-piperidin-4-yl)-1,6-dihydro-1,3,5,6-tetraaza-as-indacen-2-yl]-ethyl}-carbamic acid methyl ester], for which the Ki came to 6.07 nM in test [1], 37.1 nM in test [2], 16.3 nM in test [3] and 282 nM in test [4].

Turning to `CCN1CC[C@@H](n2c(CNS(C)(=O)=O)nc3cnc4[nH]ccc4c32)[C@@H](F)C1` [Example 909, N-[1-((3S,4R)-1-Ethyl-3-fluoro-piperidin-4-yl)-1,6-dihydro-1,3,5,6-tetraaza-as-indacen-2-ylmethyl]-methanesulfonamide], the Ki came to 7.08 nM in test [1], 128 nM in test [2], 213 nM in test [3] and 352 nM in test [4].

As for `Cc1nc2cnc3[nH]ccc3c2n1C1CNCCOC1` (stereo not drawn) [Example 910, 2-Methyl-1-[1,4]oxazepan-6-yl-1,6-dihydro-1,3,5,6-tetraaza-as-indacene], the inhibition constant Ki amounted to 50.2 nM in test [1], 212 nM in test [2], 323 nM in test [3] and 213 nM in test [4].

For `Cc1cc(CN2CCC(n3c(C(C)O)nc4cnc5[nH]ccc5c43)C(F)C2)no1` (stereo not drawn) [Example 911, 1-{1-[3-Fluoro-1-(5-methyl-isoxazol-3-ylmethyl)-piperidin-4-yl]-1,6-dihydro-1,3,5,6-tetraaza-as-indacen-2-yl}-ethanol], the Ki in test [1] is 3.33 nM; in test [2], 37.7 nM; in test [3], 5.74 nM; in test [4], 180 nM.

Regarding `Cc1noc(CN2CCC(n3c(C(C)O)nc4cnc5[nH]ccc5c43)C(F)C2)n1` (stereo not drawn) [Example 912, 1-{1-[3-Fluoro-1-(3-methyl-[1,2,4]oxadiazol-5-ylmethyl)-piperidin-4-yl]-1,6-dihydro-1,3,5,6-tetraaza-as-indacen-2-yl}-ethanol], the Ki in test [1] turned out to be 3.37 nM; in test [2], 42.8 nM; in test [3], 7.83 nM; in test [4], 176 nM.

Take `CCN1CCC(n2c(CNS(C)(=O)=O)nc3cnc4[nH]ccc4c32)C(F)(F)C1` (stereo not drawn) [Example 915, N-[1-(1-Ethyl-3,3-difluoro-piperidin-4-yl)-1,6-dihydro-1,3,5,6-tetraaza-as-indacen-2-ylmethyl]-methanesulfonamide]: the Ki is 5.49 nM in test [1], 28.2 nM in test [2], 22.2 nM in test [3] and 101 nM in test [4].

With `C[C@@H](O)c1nc2cnc3[nH]ccc3c2n1C1CCN(CC(F)F)CC1` [Example 916, (R)-1-{1-[1-(2,2-Difluoro-ethyl)-piperidin-4-yl]-1,6-dihydro-1,3,5,6-tetraaza-as-indacen-2-yl}-ethanol], the Ki was 6.73 nM in test [1], 52.8 nM in test [2], 63.5 nM in test [3] and 78.4 nM in test [4].

As to `CC(O)c1nc2cnc3[nH]ccc3c2n1C1CC2CCC(C1)N2` (stereo not drawn) [Example 919, 1-[1-(8-Aza-bicyclo[3.2.1]oct-3-yl)-1,6-dihydro-1,3,5,6-tetraaza-as-indacen-2-yl]-ethanol], the Ki in test [1] was determined as 10.6 nM; in test [2], 437 nM; in test [3], 476 nM; in test [4], 264 nM.

For the molecule `CC(=O)NCc1nc2cnc3[nH]ccc3c2n1C1CCN(CC(F)(F)F)CC1` [Example 920, N-{1-[1-(2,2,2-Trifluoro-ethyl)-piperidin-4-yl]-1,6-dihydro-1,3,5,6-tetraaza-as-indacen-2-ylmethyl}-acetamide], the Ki in test [1] turned out to be 13 nM; in test [2], 93 nM; in test [3] it was 86.5 nM; in test [4], 183 nM.

For `CC(=O)NCc1nc2cnc3[nH]ccc3c2n1C1CCN(CCF)CC1` [Example 921, N-{1-[1-(2-Fluoro-ethyl)-piperidin-4-yl]-1,6-dihydro-1,3,5,6-tetraaza-as-indacen-2-ylmethyl}-acetamide], the Ki in test [1] was 13.1 nM; in test [2], 116 nM; in test [3], 70.9 nM; in test [4] it was 191 nM.

By Ki is commonly meant a dissociation constant, usually derived from enzyme kinetics or from competition with a known ligand.
